The text below walks through data of patent US20250122181A1, “BENZIMIDAZOLES AS MODULATORS OF IL-17” (Janssen Pharmaceutica NV, priority 2021, published 2025).

The test system of assay [1] is patients with moderate-to-severe HS. The settings on record: seven of nine patients with moderate-to-severe HS, open-label pilot-trial; cited from earlier work.
Assay [2] has as its target T1, IL-17A(FLAG-Tagged): IL-17RA(His-Tagged) (Homo sapiens, UniProt Q16552, K93Q). The assay is described as follows: IL-17A(FLAG-Tagged): IL-17RA(His-Tagged) Binding Disruption Eu-HTRF Assay, Protocol 1. The conditions noted are these: Protocol 1, FLAG tagged IL-17A 2.5 nM; simple average if tested more than once. In outline:
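IC50 came from a one-site competition fit of the acceptor/donor (665/620 nm) HTRF ratio. His-tagged IL-17RA, Eu-anti-FLAG and D2-anti-His were added after a 1 h rt compound preincubation with FLAG-tagged IL-17A dimer in PBS/0.01% Triton X-100, followed by 2 h at rt before reading.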
A general note: Time-resolved FRET reads energy transfer from a long-lived donor to a nearby acceptor.

The target of assay [3] is T1, IL-17A(FLAG-Tagged): IL-17RA(His-Tagged). Briefly: IL-17A(FLAG-Tagged): IL-17RA(His-Tagged) Binding Disruption Eu-HTRF Assay, Protocol 2. The conditions noted are these: Protocol 2, FLAG tagged IL-17A 1 nM; simple average if tested more than once. An excerpt: An antibody directed against the FLAG tag of IL-17A (SEQ ID NO: 1) is labeled with the HTRF donor chromophore (Europium-cryptate). IL-17A is present as a dimer that is “locked into” this quaternary structure due to the formation of loop-spanning […] disulfide bridges. The construct of IL-17RA used in the assay excludes the […] portion of the receptor and is fused to a C-terminal 10×His tag (SEQ ID NO:2). An antibody directed against the His tag of the IL-17RA chimera is labeled with the HTRF acceptor chromophore (“D2”). The fluorescence-resonance energy transfer (FRET) depends on the vicinity of the donor chromophore to the acceptor, and interruption of the binding between the IL-17A and IL-17RA causes the reduction/loss of FRET. Therefore, this assay allows to evaluate the compound effect on the binding IL-17A and IL-17RA by monitoring the fluorescence intensity of donor vs acceptor. The assay was run using either Protocol 1 or Protocol 2 as described below.
Protocol 2. 40 nl of 2-fold serial diluted compound solution for total 22 dilution points is added into each well of a 1536-well, white, low-volume, non-binding plate (Greiner #782904), then 2 μl of FLAG tagged IL-17A at 2× final concentration (1 nM) in solution of PBS+0.01% Triton-X100 is added to each well. The assay plate is briefly centrifuged then incubated for 1 h at rt. A mixed solution is prepared containing 2×5 nM 10HIS×IL-17RA, 2×2.5 nM Eu-anti-FLAG (CISBIO), 2×5 nM D2-anti-HIS (CISBIO) in PBS+0.01% Triton-X100+200 mM Potassium Fluoride (Sigma 60238) and 2 μl of mix is added to each well of the assay plate. The plate is briefly centrifuged then incubated for 2 h at rt. The HTRF intensities at the wavelength of donor (615 nm) and acceptor (665 nm) are measured using BMG Pherastar. The ratio between intensities at two wavelengths is calculated and plotted against the compound concentration and the data is fitted to a one-site competition model to yield IC50 of the compound.

The test system of assay [4] is IL-17A-induced G-CSF production in human normal keratinocyte (NHK). The assay is described as follows: NHK Assay: IL-17A-induced G-CSF production in human normal keratinocyte. In kind it is cell-based. The settings on record: Homo sapiens, Keratinocyte, 24 h, IL-17A 5 ng/mL, simple average if tested more than once. Summed up: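 Compound titrations are first mixed with recombinant human IL-17A for 1 h at room temperature. The mixture goes onto adult normal human keratinocytes (final IL-17A 5 ng/mL, 5% FBS, 0.2% DMSO) for 24 h at 37 °C. Secreted G-CSF is then measured by HTRF and IC50 fitted.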

T1 sequence (Q16552 with tags, fused parts or gaps K93Q): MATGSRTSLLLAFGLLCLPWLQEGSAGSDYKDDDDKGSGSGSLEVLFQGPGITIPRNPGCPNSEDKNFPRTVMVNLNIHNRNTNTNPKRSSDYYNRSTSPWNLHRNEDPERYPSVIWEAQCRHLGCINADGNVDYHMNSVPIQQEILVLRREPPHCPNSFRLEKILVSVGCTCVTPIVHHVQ

In the case of secukinumab, the “patients achieved HiSCR” value in assay [1] is on record as 78%.
A word on the IC50: it is the concentration that inhibits the measured activity by half. Higher therefore signals weaker potency. As for `C[C@H](c1ccc2[nH]c(C(COC(C)(C)C(F)(F)F)NC(=O)c3nonc3C3CC3)nc2c1)N1C[C@@H](C(F)(F)F)NC1=O` (single isomer, unassigned) [Example 7, 4-Cyclopropyl-N—((R*)-1-(5-((R)-1-((S)-2-oxo-4-(trifluoromethyl)imidazolidin-1-yl)ethyl)-1H-benzo[d]imidazol-2-yl)-2-((1,1,1-trifluoro-2-methylpropan-2-yl)oxy)ethyl)-1,2,5-oxadiazole-3-carboxamide], the IC50 in assay [2], in assay [3] and in assay [4] was below 50 nM each time.
For the molecule `Cc1nonc1C(=O)N[C@@H](COC(C)(C)C(F)(F)F)c1nc2cc([C@@H](C3CC3)N3C[C@@H](C(C)C)NC3=O)ccc2[nH]1` [Example 83, N—((R)-1-(5-((R)-Cyclopropyl((R)-4-isopropyl-2-oxoimidazolidin-1-yl)methyl)-1H-benzo[d]imidazol-2-yl)-2-((1,1,1-trifluoro-2-methylpropan-2-yl)oxy)ethyl)-4-methyl-1,2,5-oxadiazole-3-carboxamide], the IC50 in assay [2], in assay [3] and in assay [4] was below 50 nM each time.
With `CC(C)n1nccc1C(=O)NC(c1nc2nc([C@@H](C3CC3)N3CC(F)(F)CNC3=O)ccc2[nH]1)[C@@H](C)O[C@H](C)C(F)(F)F` (single isomer, unassigned) [Example 75, N-((1R*,2R)-1-(5-((R)-Cyclopropyl(5,5-difluoro-2-oxotetrahydropyrimidin-1(2H)-yl)methyl)-1H-imidazo[4,5-b]pyridin-2-yl)-2-(((R)-1,1,1-trifluoropropan-2-yl)oxy)propyl)-1-isopropyl-1H-pyrazole-5-carboxamide], the half-maximal inhibitory concentration (IC50) in assay [2] is above 100 nM; in assay [3], above 100 nM; in assay [4] it was below 50 nM.
`CC(C)(OC[C@H](NC(=O)c1nonc1C1CC1)c1nc2cc(CN3C[C@@H](C(F)(F)F)NC3=O)ccc2[nH]1)C(F)(F)F` (single isomer, unassigned) [Example 17]: the 50% inhibitory concentration (IC50) in assay [2], in assay [3] and in assay [4] was below 50 nM each time.
